Assay results: patent publication US6228870A, “Oxazolidinones useful as alpha 1a adrenoceptor antagonists” (Merck & Co., Inc., priority 1999, dated 2001)

System: human alpha 1b adrenergic receptor
Assay: Selective Binding Assay, alpha 1b (competition with [125I]-HEAT)
Settings: alpha 1a versus alpha 1b
Description: Membranes prepared from stably transfected human alpha 1d and alpha 1b cell lines (ATCC […] and CRL 11139, respectively) were used to identify compounds that selectively bind to the human alpha 1a adrenergic receptor. These competition binding) reactions (total volume=200 μl) contained 50 mM Tris-HCl pH. 7.4, 5 mM EDTA, 150 mM NaCl, 100 pM [^125 I]-HEAT, membranes prepared from cell lines transfected with the respective alpha 1 subtype expression plasmid and increasing amounts of unlabeled ligand. Reactions were incubated at room temperature for one hour with shaking. Reactions were filtered onto Whatman GF/C glass fiber filters with a Inotec 96 well cell harvester. Filters were washed three times with ice cold buffer and bound radioactivity was determined (Ki).

Row | selectivity in binding to alpha 1a receptors versus alpha 1b receptors | Compound
1 | about 184 fold | COC[C@@H]1OC(=O)N(C(=O)NCCCN2CCC(c3ccccc3C#N)CC2)[C@H]1c1ccc(F)c(F)c1 [Example 11, (4S,5R)-4-(3,4-Difluorophenyl)-5-methoxymethyl-2-oxo-oxazolidine-3-carboxylic acid {3-[4-(2-cyanophenyl)piperidin-1-yl]propyl}amide]
2 | about 453 fold | COC[C@@H]1OC(=O)N(C(=O)NCCCN2CCC(c3ccc(F)cc3C#N)CC2)[C@H]1c1ccc(F)c(F)c1 [Example 13, (4S,5R)-4-(3,4-Difluorophenyl)-5-methoxymethyl-2-oxo-oxazolidine-3-carboxylic acid {3-[4-(2-cyano-4-fluorophenyl)piperidin-1-yl]propyl}amide]
